Assay results as given in ChEMBL document CHEMBL1122919, “Substituted 2-pyrones, 2-pyridones, and other congeners of elasnin as potential agents for the treatment of chronic obstructive lung diseases” (J Med Chem, 1985).

Each molecule was assayed against T1, Neutrophil elastase (Homo sapiens, UniProt P08246) (assay: Inhibitory activity was evaluated against human leukocyte elastase).
T1 sequence (P08246 whole entry): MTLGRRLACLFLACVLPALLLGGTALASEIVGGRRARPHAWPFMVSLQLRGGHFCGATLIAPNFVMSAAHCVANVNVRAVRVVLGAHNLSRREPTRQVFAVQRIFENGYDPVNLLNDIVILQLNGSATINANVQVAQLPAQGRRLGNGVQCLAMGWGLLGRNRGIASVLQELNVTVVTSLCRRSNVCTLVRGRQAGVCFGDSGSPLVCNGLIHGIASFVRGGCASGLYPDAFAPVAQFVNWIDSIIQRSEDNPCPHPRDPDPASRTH

Structure (SMILES)	IC50 [µM]
CCCCCCCCCCCCCCCC(=O)c1c(O)cc(C)oc1=O	35.8
CCCCCCC(CCCC)c1cc(O)cc(=O)o1 (stereo not drawn)	1620
CCCCCCCCCCCc1cc(O)cc(=O)[nH]1	153
CCCCCCCCCCCc1cc(O)cc(=O)o1	3150
CCCCCCCCCCCC(=O)c1c(O)cc(C)oc1=O	26.8

The molecules below were run against T1, Neutrophil elastase (assay: Inhibitory activity was evaluated against human leukocyte elastase; Inactive).

Structure (SMILES)	IC50
CCCc1cc(O)cc(=O)o1	Not Active
CCCCc1cc(O)cc(=O)o1	Not Active
CCCCCCCc1cc(O)cc(O)n1	Not Active
CCCC(=O)c1c(O)cc(C)oc1=O	Not Active
CCC(=O)c1c(O)cc(C)oc1=O	Not Active
CCCCCCCc1cc(O)cc(=O)o1	Not Active
CCCCCC(=O)c1c(O)cc(C)oc1=O	Not Active
CCCCCc1cc(O)cc(=O)o1	Not Active
